Results taken from ChEMBL document CHEMBL5724914, “Linking interpersonal differences in gut microbiota composition and drug biotransformation activity” (2024).

Tests used:
[1] = (§1) The drug is tested on WLS-240 corresponding to human gut metagenome with ENA study accession number: PRJEB37062 and ENA sample accession number: ERS12561773 for biotransformation under anaerobic condition. The drug concentrations were measured over 9 timepoints collected between 0 and 24 hours of incubation by liquid-chromatography-coupled mass spectrometry (LC–MS); conditions: 2 µM
[2] = human gut metagenome, 24 h, 2 µM
[3] = human gut metagenome, 24 h, 2 µM; remark: listed apart in the source
[4] = human gut metagenome, 24 h, 2 µM; remark: listed apart in the source
[5] = as §1, with “Z-023” for “WLS-240”, “to” for “to human gut”, “ERS12561822” for “ERS12561773”; conditions: 2 µM
[6] = human gut metagenome, 24 h, 2 µM; remark: listed apart in the source
[7] = human gut metagenome, 24 h, 2 µM; remark: listed apart in the source
[8] = as §1, with “WLS-007” for “WLS-240”, “ERS12561742” for “ERS12561773”; conditions: 2 µM
[9] = human gut metagenome, 24 h, 2 µM; remark: listed apart in the source
Also: call rule not given here.

SMILES	Bacterial Biotransformation [1]	Bacterial Biotransformation [2]	Bacterial Biotransformation [3]	Bacterial Biotransformation [4]	Bacterial Biotransformation [5]	Bacterial Biotransformation [6]	Bacterial Biotransformation [7]	Bacterial Biotransformation [8]	Bacterial Biotransformation [9]
CCCc1nc(C(C)(C)O)c(C(=O)OCc2oc(=O)oc2C)n1Cc1ccc(-c2ccccc2-c2nnn[nH]2)cc1 [OLMESARTAN MEDOXOMIL]	Compound NOT metabolized	Compound metabolized	Compound metabolized	Compound metabolized	Compound metabolized	Compound metabolized	Compound NOT metabolized	Compound metabolized	Compound metabolized
CCN(CC)CC#CCOC(=O)C(O)(c1ccccc1)C1CCCCC1.Cl (stereo not given) [OXYBUTYNIN CHLORIDE]	Compound metabolized	Compound metabolized	Compound metabolized	Compound metabolized	Compound metabolized	Compound metabolized	Compound metabolized	Compound metabolized	Compound metabolized
Fc1ccc([C@@H]2CCNC[C@H]2COc2ccc3c(c2)OCO3)cc1 [PAROXETINE]	Compound metabolized	Compound metabolized	Compound metabolized	Compound metabolized	Compound metabolized	Compound NOT metabolized	Compound metabolized	Compound NOT metabolized	Compound metabolized
O=c1[nH]c2ccccc2n1C1CCN(CCCC(c2ccc(F)cc2)c2ccc(F)cc2)CC1 [PIMOZIDE]	Compound metabolized	Compound metabolized	Compound metabolized	Compound metabolized	Compound NOT metabolized	Compound NOT metabolized	Compound metabolized	Compound metabolized	Compound metabolized
CS(=O)(=O)O.OC(CCN1CCCCC1)(c1ccccc1)c1ccccc1 [PRIDINOL METHANESULFONATE]	Compound metabolized	Compound metabolized	Compound metabolized	Compound metabolized	Compound NOT metabolized	Compound metabolized	Compound metabolized	Compound NOT metabolized	Compound metabolized
CC(CN1c2ccccc2Sc2ccccc21)N(C)C (stereo not given) [PROMETHAZINE]	Compound metabolized	Compound metabolized	Compound metabolized	Compound metabolized	Compound metabolized	Compound NOT metabolized	Compound metabolized	Compound NOT metabolized	Compound NOT metabolized
OCCOCCN1CCN(C2=Nc3ccccc3Sc3ccccc32)CC1 [QUETIAPINE]	Compound metabolized	Compound metabolized	Compound NOT metabolized	Compound metabolized	Compound NOT metabolized	Compound metabolized	Compound metabolized	Compound NOT metabolized	Compound metabolized
CCC(=O)NCC[C@@H]1CCc2ccc3c(c21)CCO3 [RAMELTEON]	Compound metabolized	Compound metabolized	Compound metabolized	Compound metabolized	Compound metabolized	Compound NOT metabolized	Compound metabolized	Compound NOT metabolized	Compound metabolized
CNC(=C[N+](=O)[O-])NCCSCc1ccc(CN(C)C)o1 [RANITIDINE]	Compound NOT metabolized	Compound NOT metabolized	Compound metabolized	Compound metabolized	Compound metabolized	Compound NOT metabolized	Compound NOT metabolized	Compound NOT metabolized	Compound metabolized
Nc1nc2ccc(OC(F)(F)F)cc2s1 [RILUZOLE]	Compound metabolized	Compound metabolized	Compound metabolized	Compound metabolized	Compound metabolized	Compound metabolized	Compound metabolized	Compound metabolized	Compound metabolized
CC(C)c1nc(CN(C)C(=O)N[C@H](C(=O)N[C@@H](Cc2ccccc2)C[C@H](O)[C@H](Cc2ccccc2)NC(=O)OCc2cncs2)C(C)C)cs1 [RITONAVIR]	Compound metabolized	Compound metabolized	Compound metabolized	Compound metabolized	Compound metabolized	Compound metabolized	Compound metabolized	Compound metabolized	Compound metabolized
CC(C)NCC(O)c1ccc(NS(C)(=O)=O)cc1 (stereo not given) [SOTALOL]	Compound NOT metabolized	Compound NOT metabolized	Compound NOT metabolized	Compound NOT metabolized	Compound NOT metabolized	Compound NOT metabolized	Compound NOT metabolized	Compound NOT metabolized	Compound NOT metabolized
CCN1CCCC1CNC(=O)c1cc(S(N)(=O)=O)ccc1OC (stereo not given) [SULPIRIDE]	Compound metabolized	Compound metabolized	Compound metabolized	Compound metabolized	Compound NOT metabolized	Compound NOT metabolized	Compound metabolized	Compound NOT metabolized	Compound metabolized
CNS(=O)(=O)Cc1ccc2[nH]cc(CCN(C)C)c2c1.O=C(O)CCC(=O)O [SUMATRIPTAN SUCCINATE]	Compound metabolized	Compound metabolized	Compound metabolized	Compound metabolized	Compound NOT metabolized	Compound NOT metabolized	Compound NOT metabolized	Compound NOT metabolized	Compound metabolized
Nc1c2c(nc3ccccc13)CCCC2 [TACRINE]	Compound metabolized	Compound metabolized	Compound metabolized	Compound metabolized	Compound NOT metabolized	Compound metabolized	Compound NOT metabolized	Compound NOT metabolized	Compound metabolized
Cc1ccc(S(=O)(=O)NC(=O)NN2CCCCCC2)cc1 [TOLAZAMIDE]	Compound metabolized	Compound metabolized	Compound metabolized	Compound metabolized	Compound metabolized	Compound metabolized	Compound metabolized	Compound metabolized	Compound metabolized
CCOC(=O)[C@H](CCc1ccccc1)N[C@@H](C)C(=O)N1[C@H](C(=O)O)C[C@H]2CCCC[C@@H]21 [TRANDOLAPRIL]	Compound metabolized	Compound metabolized	Compound metabolized	Compound metabolized	Compound metabolized	Compound metabolized	Compound metabolized	Compound metabolized	Compound metabolized
CC(CN(C)C)CN1c2ccccc2CCc2ccccc21.O=C(O)/C=C\C(=O)O (stereo not given) [TRIMIPRAMINE MALEATE]	Compound metabolized	Compound metabolized	Compound metabolized	Compound metabolized	Compound metabolized	Compound NOT metabolized	Compound metabolized	Compound metabolized	Compound NOT metabolized
CC(=O)CC(c1ccccc1)c1c(O)c2ccccc2oc1=O (stereo not given) [WARFARIN]	Compound metabolized	Compound metabolized	Compound metabolized	Compound metabolized	Compound metabolized	Compound metabolized	Compound metabolized	Compound metabolized	Compound metabolized
Cc1ccc(-c2nc3ccc(C)cn3c2CC(=O)N(C)C)cc1 [ZOLPIDEM]	Compound metabolized	Compound NOT metabolized	Compound NOT metabolized	Compound metabolized	Compound metabolized	Compound NOT metabolized	Compound metabolized	Compound NOT metabolized	Compound metabolized
